Our source for the IC50 values is US7691818B2, “Peptidomimetic inhibitors of retroviral proteases and their use as antivirals” (Universita' Degli Studi Di Treiste, priority 2004, dated 2010).

Usually IC50 stands for the concentration that gives 50% inhibition.

The target in this experiment is HIV-1 recombinant protease (Human immunodeficiency virus type 1 group M subtype B, UniProt P04585). Kind of experiment: biochemical.

Procedure: Inhibitory activity was measured in accordance with the method described by A. Tossi et al. (Eur. J. Biochem., 2000, 267, 1715) using an HIV-1 recombinant protease supplied by Bioczech (Prague, CZ) and the fluorogenic substrate Abz-Thr-Ile-Nle-Phe(p-NO2)-Gln-Arg-NH2 (abbreviated hereinafter as Abz-NF*-6) supplied by Bachem (Bubendorf, CH). Specifically, 189 μL of a 30 μM solution of Abz-NF*-6 in a 100 mM MES-NaOH buffer (pH 5.5) containing NaCl (400 mM), EDTA (1 mM), DTT (1 mM) and BSA (1 mg/mL) are incubated at 25° C. in a cuvette placed directly in the spectrofluorimeter, irradiated at 325 mn and checking that there is no increase of emission at 420 nm due to the spontaneous hydrolysis of the substrate. After 1.5 minutes 11 μL of a standard solution of HIV-PR (0.4 mg/mL) in the same buffer are added and the variation in fluorescence, due to catalysed hydrolysis of the Abz-NF*-6 substrate, is recorded for 1 minute. 2 μL of the inhibitor solution in DMSO or MES buffer are then added and the variation in fluorescence over time due to hydrolysis of the Abz-NF*-6 substrate in the presence of the specific inhibitor is recorded.

For the compound `CC(=O)NC(Cc1c[nH]c2ccccc12)C(=O)NC(C(=O)N1CCC[C@H]1[C@H](O)[C@@H](O)[C@H](Cc1ccccc1)NC(=O)COc1c(C)cccc1C)C(C)C` (stereo partly drawn) [(24), DmPoa-Phe-[φ]-Pro-Val-Trp-NH-Ac], the IC50 was determined as 75.3 nM.

`Cc1cccc(C)c1OCC(=O)N[C@@H](Cc1ccccc1)[C@H](O)[C@@H](O)[C@@H]1CCCN1C(=O)COc1ccccc1` [(25), DmPoa-Phe-[φ]-Pro-Poa]: the IC50 came to 84.7 nM.

`Cc1cccc(C)c1OCC(=O)N[C@@H](Cc1ccccc1)[C@H](O)[C@@H](O)[C@@H]1CCCN1C(=O)COc1c(C)cccc1C` [(23), DmPoa-Phe-[φ]-Pro-DmPoa]: the IC50 came to 9.6 nM.

`CC(=O)N[C@@H](Cc1c[nH]c2ccccc12)C(=O)N[C@H](C(=O)N[C@@H](Cc1ccccc1)[C@H](O)[C@@H](O)[C@@H]1CCCN1C(=O)[C@@H](NC(=O)[C@H](Cc1c[nH]c2ccccc12)NC(C)=O)C(C)C)C(C)C` [(22), NH-Ac-Trp-Val-Phe-[φ]-Pro-Val-Trp-NH-Ac]: the IC50 was determined as 0.06 nM.

Regarding `CCC(C)C(NC(=O)C(NC(C)=O)C(C)C)C(=O)N1CCC[C@H]1[C@H](O)[C@@H](O)[C@H](Cc1ccccc1)NC(=O)C(CC(N)=O)NC(=O)C(CC(C)C)NC(=O)C(CO)NC(C)=O` (stereo partly drawn) [(21), NH-Ac-Ser-Leu-Asn-Phe-[φ]-Pro-Ile-Val-NH-Ac], the IC50 worked out at 0.61 nM.
